The compounds below were run against factor B (Homo sapiens, UniProt P00751) (assay: factor B inhibition assay of Biological Example 1). Conditions: IC50 (nM), assay of Biological Example 1 (Table 1).
Format: biochemical
Design: CVF-Bb complex prepared from purified cobra venom factor (1 μM), recombinant human complement factor B; made in house; host or cells: drosophila cells (factor B); E. coli (factor D used to form the complex)

Chain of factor B (P00751 260-764 limits assumed): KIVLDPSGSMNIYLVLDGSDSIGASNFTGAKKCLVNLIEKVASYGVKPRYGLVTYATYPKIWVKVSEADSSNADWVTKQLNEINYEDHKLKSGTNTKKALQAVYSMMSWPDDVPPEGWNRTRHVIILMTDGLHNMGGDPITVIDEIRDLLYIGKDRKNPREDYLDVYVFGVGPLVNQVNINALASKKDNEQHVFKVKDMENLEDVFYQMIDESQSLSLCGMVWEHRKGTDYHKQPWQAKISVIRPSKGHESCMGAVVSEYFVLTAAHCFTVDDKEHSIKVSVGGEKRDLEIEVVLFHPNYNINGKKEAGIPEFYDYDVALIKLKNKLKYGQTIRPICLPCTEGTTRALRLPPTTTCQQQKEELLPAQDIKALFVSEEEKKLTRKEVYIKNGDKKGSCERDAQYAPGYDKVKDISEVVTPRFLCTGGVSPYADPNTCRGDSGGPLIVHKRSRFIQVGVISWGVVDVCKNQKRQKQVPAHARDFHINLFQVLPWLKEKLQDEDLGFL
Chain of factor B (Q91132 23-649 partner limits assumed): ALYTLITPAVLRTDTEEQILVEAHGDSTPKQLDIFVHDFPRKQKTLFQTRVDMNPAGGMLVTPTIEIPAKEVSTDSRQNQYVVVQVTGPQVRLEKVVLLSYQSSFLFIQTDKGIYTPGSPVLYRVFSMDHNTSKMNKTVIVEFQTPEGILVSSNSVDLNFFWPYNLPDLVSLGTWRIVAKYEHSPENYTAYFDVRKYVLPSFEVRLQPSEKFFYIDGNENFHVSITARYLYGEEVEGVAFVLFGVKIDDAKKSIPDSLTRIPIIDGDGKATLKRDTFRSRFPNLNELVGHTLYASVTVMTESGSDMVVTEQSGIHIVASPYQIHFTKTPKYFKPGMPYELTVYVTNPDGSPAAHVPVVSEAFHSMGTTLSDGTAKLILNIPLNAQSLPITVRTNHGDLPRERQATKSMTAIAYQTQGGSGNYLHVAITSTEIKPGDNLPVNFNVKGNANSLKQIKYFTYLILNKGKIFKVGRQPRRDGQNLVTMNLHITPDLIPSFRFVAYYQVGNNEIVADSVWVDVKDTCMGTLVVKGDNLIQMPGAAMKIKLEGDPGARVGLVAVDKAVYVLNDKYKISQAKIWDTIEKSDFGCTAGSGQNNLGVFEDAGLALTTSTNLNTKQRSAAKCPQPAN
Chain of factor B (Q91132 733-984 partner limits assumed): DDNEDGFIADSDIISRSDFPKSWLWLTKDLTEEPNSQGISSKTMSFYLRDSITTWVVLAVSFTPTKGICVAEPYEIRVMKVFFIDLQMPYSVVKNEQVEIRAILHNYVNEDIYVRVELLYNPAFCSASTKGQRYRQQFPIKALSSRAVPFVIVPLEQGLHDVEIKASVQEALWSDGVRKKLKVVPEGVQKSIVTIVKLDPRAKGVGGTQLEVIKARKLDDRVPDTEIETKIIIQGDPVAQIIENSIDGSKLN
Chain of factor B (Q91132 1264-1642 partner limits assumed): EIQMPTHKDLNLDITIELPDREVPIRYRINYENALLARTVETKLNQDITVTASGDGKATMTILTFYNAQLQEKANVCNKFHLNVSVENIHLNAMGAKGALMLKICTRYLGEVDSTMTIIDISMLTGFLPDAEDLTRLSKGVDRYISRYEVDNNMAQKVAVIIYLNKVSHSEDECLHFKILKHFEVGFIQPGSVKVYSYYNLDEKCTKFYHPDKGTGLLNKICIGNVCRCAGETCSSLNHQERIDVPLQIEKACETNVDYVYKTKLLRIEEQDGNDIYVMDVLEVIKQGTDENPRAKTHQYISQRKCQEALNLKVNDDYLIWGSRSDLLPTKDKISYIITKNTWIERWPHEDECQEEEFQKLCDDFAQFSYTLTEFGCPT

Compound	IC50
CCOCc1cc(C)c2[nH]ccc2c1C(O)c1nc2cc(C#N)ccc2[nH]1 (single isomer, unassigned; (-)) [66-D b) (−), (−)-2-((5-(ethoxymethyl)-7-methyl-1H-indol-4-yl)(hydroxy)methyl)-1H-benzo[d]imidazole-5-carbonitrile]	5110 nM
CCc1cc(C)c2[nH]ccc2c1C(O)c1nc2cc(C#N)ccc2[nH]1 (single isomer, unassigned; (-)) [67-A b) (−), (−)-2-((5-ethyl-7-methyl-1H-indol-4-yl)(hydroxy)methyl)-1H-benzo[d]imidazole-5-carbonitrile]	160 nM
Cc1cc(CC(C)C)c(C(O)c2nc3cc(C#N)ccc3[nH]2)c2cc[nH]c12 (single isomer, unassigned; (-)) [67-C b) (−), (−)-2-(hydroxy(5-(isobutyl)-7-methyl-1H-indol-4-yl)methyl)-1H-benzo[d]imidazole-5-carbonitrile]	6750 nM
Cc1cc(C(C)C)c(C(O)c2nc3cc(C#N)ccc3[nH]2)c2cc[nH]c12 (single isomer, unassigned; (-)) [67-D b) (−), (−)-2-(hydroxy(5-isopropyl-7-methyl-1H-indol-4-yl)methyl)-1H-benzo[d]imidazole-5-carbonitrile]	60 nM
Cc1cc(Cl)c(C(O)c2nc3cc(C#N)ccc3[nH]2)c2cc[nH]c12 (single isomer, unassigned; (-)) [67-E b) (−), (−)-2-((5-chloro-7-methyl-1H-indol-4-yl)(hydroxy)methyl)-1H-benzo[d]imidazole-5-carbonitrile]	1180 nM
Cc1cc(C)c2[nH]ccc2c1C(O)c1nc2c(C)c(C#N)ccc2[nH]1 (single isomer, unassigned; (-)) [67-G b) (−), (−)-2-((5,7-dimethyl-1H-indol-4-yl)(hydroxy)methyl)-4-methyl-1H-benzo[d]imidazole-5-carbonitrile]	570 nM
CCc1cc(C)c2[nH]ccc2c1C(OC)c1nc2cc(C#N)ccc2[nH]1 (single isomer, unassigned; (-)) [70-D b) (−), (−)-2-((5-ethyl-7-methyl-1H-indol-4-yl)(methoxy)methyl)-1H-benzo[d]imidazole-5-carbonitrile]	480 nM
COC(c1nc2cc(C#N)ccc2[nH]1)c1c(CC(C)C)cc(C)c2[nH]ccc12 (single isomer, unassigned; (-)) [71 b) (−), (−)-2-((5-isobutyl-7-methyl-1H-indol-4-yl)(methoxy)methyl)-1H-benzo[d]imidazole-5-carbonitrile]	4590 nM
Cc1cc(C)c2[nH]ccc2c1C(C)(O)c1nc2cc(C#N)ccc2[nH]1 (single isomer, unassigned; (-)) [76-B b) (−), (−)-2-(1-(5,7-Dimethyl-1H-indol-4-yl)-1-hydroxyethyl)-1H-benzo[d]imidazole-5-carbonitrile]	190 nM
CCc1cc(C)c2[nH]ccc2c1C(C)(O)c1nc2cc(C#N)ccc2[nH]1 (single isomer, unassigned; (-)) [77-C b) (−), (−)-2-(1-(5-ethyl-7-methyl-1H-indol-4-yl)-1-hydroxyethyl)-1H-benzo[d]imidazole-5-carbonitrile]	20 nM
Cc1cc(C(C)C)c(C(C)(O)c2nc3cc(C#N)ccc3[nH]2)c2cc[nH]c12 (single isomer, unassigned; (-)) [79-B b) (−), (−)-2-(1-hydroxy-1-(5-isopropyl-7-methyl-1H-indol-4-yl)ethyl)-1H-benzo[d]imidazole-5-carbonitrile]	260 nM
Cc1cc(C2CC2)c(C(C)(O)c2nc3cc(C#N)ccc3[nH]2)c2cc[nH]c12 (single isomer, unassigned; (-)) [79-C b) (−), (−)-2-(1-(5-cyclopropyl-7-methyl-1H-indol-4-yl)-1-hydroxyethyl)-1H-benzo[d]imidazole-5-carbonitrile]	6 nM
Cc1cc(CC(C)C)c(C(C)(O)c2nc3cc(C#N)ccc3[nH]2)c2cc[nH]c12 (single isomer, unassigned; (-)) [79-D b) (−), (−)-2-(1-hydroxy-1-(5-isobutyl-7-methyl-1H-indol-4-yl)ethyl)-1H-benzo[d]imidazole-5-carbonitrile]	310 nM
Cc1cc(Cl)c(C(C)(O)c2nc3cc(C#N)ccc3[nH]2)c2cc[nH]c12 (single isomer, unassigned; (-)) [79-E b) (−), (−)-2-(1-(5-chloro-7-methyl-1H-indol-4-yl)-1-hydroxyethyl)-1H-benzo[d]imidazole-5-carbonitrile]	350 nM
CCc1cc(C)c2[nH]ccc2c1C(O)(c1nc2cc(C#N)ccc2[nH]1)C(F)(F)F (single isomer, unassigned; (-)) [80-C b) (−), (−)-2-(1-(5-ethyl-7-methyl-1H-indol-4-yl)-2,2,2-trifluoro-1-hydroxyethyl)-1H-benzo[d]imidazole-5-carbonitrile]	10 nM
Cc1cc(C)c2[nH]ccc2c1C(O)(c1nc2cc(C#N)ccc2[nH]1)C(F)(F)F (single isomer, unassigned; (-)) [80-D b) (−), (−)-2-(1-(5,7-dimethyl-1H-indol-4-yl)-2,2,2-trifluoro-1-hydroxyethyl)-1H-benzo[d]imidazole-5-carbonitrile]	70 nM
Cc1cc(C2CC2)c(C(O)(c2nc3cc(C#N)ccc3[nH]2)C(F)(F)F)c2cc[nH]c12 (single isomer, unassigned; (-)) [80-E b) (−), (−)-2-(1-(5-cyclopropyl-7-methyl-1H-indol-4-yl)-2,2,2-trifluoro-1-hydroxyethyl)-1H-benzo[d]imidazole-5-carbonitrile]	10 nM
Cc1cc(C(C)C)c(C(O)(c2nc3cc(C#N)ccc3[nH]2)C(F)(F)F)c2cc[nH]c12 (single isomer, unassigned; (-)) [80-F b) (−), (−)-2-(2,2,2-trifluoro-1-hydroxy-1-(5-isopropyl-7-methyl-1H-indol-4-yl)ethyl)-1H-benzo[d]imidazole-5-carbonitrile]	20 nM
COC(C)(c1nc2cc(C#N)ccc2[nH]1)c1c(C)cc(C)c2[nH]ccc12 (single isomer, unassigned; (-)) [84-B b) (−), (−)-2-(1-(5,7-dimethyl-1H-indol-4-yl)-1-methoxyethyl)-1H-benzo[d]imidazole-5-carbonitrile]	50 nM
CCc1cc(C)c2[nH]ccc2c1C(C)(OC)c1nc2cc(C#N)ccc2[nH]1 (single isomer, unassigned; (-)) [84-C b) (−), (−)-2-(1-(5-ethyl-7-methyl-1H-indol-4-yl)-1-methoxyethyl)-1H-benzo[d]imidazole-5-carbonitrile]	10 nM
CCc1cc(C)c2[nH]ccc2c1C(OC)(c1nc2cc(C#N)ccc2[nH]1)C(F)(F)F (single isomer, unassigned; (-)) [84-D b) (−), (−)-2-(1-(5-ethyl-7-methyl-1H-indol-4-yl)-2,2,2-trifluoro-1-methoxyethyl)-1H-benzo[d]imidazole-5-carbonitrile]	8 nM
COC(C)(c1nc2cc(C#N)ccc2[nH]1)c1c(CC(C)C)cc(C)c2[nH]ccc12 (single isomer, unassigned; (-)) [84-E b) (−), (−)-2-(1-(5-isobutyl-7-methyl-1H-indol-4-yl)-1-methoxyethyl)-1H-benzo[d]imidazole-5-carbonitrile]	260 nM
Cc1cc(C)c2[nH]ccc2c1C(N)c1nc2ccc(C#N)cc2[nH]1 (single isomer, unassigned; (-)) [95-B b) (−), (−)-2-(amino(5,7-dimethyl-1H-indol-4-yl)methyl)benzo[d]imidazole-5-carbonitrile]	480 nM

— US9056874B2, “Complement pathway modulators and uses thereof” (NOVARTIS AG, priority 2012, dated 2015)
